We go through 1 molecule from BindingDB's records for doi:10.1021/jm800369f (Amgen, 2008).

The experiment has as its target Corticosteroid 11-beta-dehydrogenase isozyme 1. The experiment is described as follows: Inhibition of human recombinant 11beta-HSD1 expressed in Pichia pastoris.

As usually defined, the IC50 is the concentration needed to halve the response being measured.

SMILES strings stand for the structures.

Take `O=C(Nc1cccc(C(=O)N2CCC[C@H]3CCCC[C@@H]32)c1)c1ccccc1` [N-(3-((4aR,8aS)-decahydroquinoline-1-carbonyl)phenyl)benzamide]: the IC50 was found to be 14 nM.
